Data on two compounds can be found in patent US20250241927A1, “MEDICAMENT COMPRISING A P2X4 RECEPTOR ANTAGONIST FOR PREVENTING OR TREATING NOCICEPTIVE PAIN AND/OR VISCERAL PAIN” (NIPPON CHEMIPHAR CO., LTD., priority 2021, published 2025).

Holding throughout (type): in vivo, rat
Assay [1] concerns colonic damage in rats induced by the intrarectal injection of DNBS. Kind of assay: Prevention test: macroscopic colonic damage score in DNBS-treated rats. As to conditions: prevention test: daily from Day 1 to Day 6. On the procedure:
(§1) Colitis was induced by intrarectal administration of 15 mg of 2,4-dinitrobenzenesulfonic acid (DNBS; Sigma-Aldrich S.r.l., Milano, Italia) in 0.25 ml of 50% ethanol via a polyethylene PE-60 catheter inserted approximately 8 cm into the anus, while the rat was under short-term anesthesia by isoflurane (2%). To control rats, 0.25 ml of a vehicle was administered.
(§2) In addition, in order to evaluate an effect of repeated administration of a P2X4 antagonist, two different tests (that is, prevention test and intervention test) were adopted. […]
(§3) The macroscopic criteria were as follows: • presence of adhesion between colon and another intraperitoneal organ (0-2: no adhesions: 0 points, adhesion with only one adjacent organ: 1 point, and adhesions with a plurality of adjacent organs: 2 points); • consistency of colon fecal matter (indirect marker of diarrhea; 0-2: formed stool: 0 points, loose stool: 1 point, and liquid stool: 2 points); • thickening of colonic wall (mm: 1 point was scored for 1 mm); and • presence and spread of hyperemia and macroscopic mucosal damage (0-5: none: 0 points, hyperemic: 1 point, ulcers without hyperemia or thickening of intestinal wall: 2 points, ulcer with inflammation at one site: 3 points, ulcers with inflammation at two or more sites: 4 points, and wide site of damage exceeding 1 cm along length of colon: 5 points). […]

For assay [2], the system named is visceral pain (visceral hypersensitivity) in rats induced by intrarectal injection of DNBS. Conditions: prevention test: daily from Day 1 to Day 6, evaluated 6 days after colitis induction, 24 hours after last treatment. On the procedure:
Male Sprague-Dawley rats (Envigo, Varese, Italy) weighing approximately 300 g at the beginning of a test were used. The animals were housed in Centro Stabulazione Animali da Laboratorio (CeSAL, University of Florence) and used at least one week after their arrival. Four rats were raised per cage (size 26×41 cm). The animals were fed with standard laboratory diet and tap water ad libitum and kept at 23±1° C. with a 12-hour light/dark cycle (light at 7:00 in the morning). All animal manipulations were carried out according to the European Community Guidelines for Animal Care (DL116/92) and the application of European Communities Council Directive of Nov. 24, 1986 (86/609/EEC). The ethical policy of the University of Florence complies with the Guide for the Care and Use of Laboratory Animals of the US National Institutes of Health (NIH Publication No. 85-23, revised 1996, University of Florence assurance number: A5278-01). Formal approval to conduct the experiments described was obtained from the Animal Subjects Review Board of the University of Florence. […]
(§4) Visceral sensitivity to colorectal distension (CRD) was evaluated by measurement of abdominal withdrawal reflex (AWR) in conscious animals using semiquantitative scores (Lucarini et al., Cells. 2020; 9 (8): E1772). […]
Visceral sensitivity was evaluated by measuring AWR to colorectal distension (0.5 to 3 mL). […]

The nature of assay [3]: Intervention test: body weight of DNBS-treated rats. Conditions: Day 1 vs Day 8, DNBS weight loss approximately 10%, not significant. On the procedure:
(§5) In addition, in order to evaluate an effect of repeated administration of a P2X4 antagonist, two different tests (that is, prevention test and intervention test) were adopted. In the prevention test, the test medicament was administered daily to the rats immediately after the delivery of DNBS (Day 1), and the treatment was continued until the rats were sacrificed on the 6th day (Day 6). In the intervention test, the daily treatment with the medicament began 2 days after the delivery of DNBS (Day 3), and the rats were sacrificed on the 8th day (Day 8).
In the test, the administration of the compounds began 2 days after the delivery of DNBS (Day 3) and was continued until the rats were sacrificed on the 8th day (Day 8). Evaluation was performed 8 days after the induction of colitis (Day 8) and 24 hours after the last treatment with Compound A (A) and Compound B (B). After the test, the animals were sacrificed, and macroscopic damage scores were assigned to their colons (FIG. 3C and FIG. 3D). In FIG. 3E and FIG. 3F, weights (g) of the animals before the DNBS injection (Day 1) and at the end of the intervention treatment with Compound A and Compound B (Day 8) are reported, respectively.

The subject of assay [4] is colonic damage in rats induced by the intrarectal injection of DNBS. The assay can be described thus: Intervention test: macroscopic colonic damage score in DNBS-treated rats. As to conditions: intervention test: daily from Day 3 to Day 8. On the procedure: as §1, §2, §3
Assay [5] concerns visceral pain (visceral hypersensitivity) in rats induced by intrarectal injection of DNBS. The assay can be described thus: Acute administration test: abdominal withdrawal reflex (AWR) to colorectal distension in DNBS-treated rats. On the procedure:
(§6) Male Sprague-Dawley rats (Envigo, Varese, Italy) weighing approximately 300 g at the beginning of a test were used. The animals were housed in Centro Stabulazione Animali da Laboratorio (CeSAL, University of Florence) and used at least one week after their arrival. Four rats were raised per cage (size 26×41 cm). The animals were fed with standard laboratory diet and tap water ad libitum and kept at 23±1° C. with a 12-hour light/dark cycle (light at 7:00 in the morning). All animal manipulations were carried out according to the European Community Guidelines for Animal Care (DL116/92) and the application of European Communities Council Directive of Nov. 24, 1986 (86/609/EEC). The ethical policy of the University of Florence complies with the Guide for the Care and Use of Laboratory Animals of the US National Institutes of Health (NIH Publication No. 85-23, revised 1996, University of Florence assurance number: A5278-01). Formal approval to conduct the experiments described was obtained from the Animal Subjects Review Board of the University of Florence. Experiments involving animals have been reported according to ARRIVE guidelines (McGrath and Lilley, Br. J. Pharmacol. 2015; 172:3189-3193). All efforts were made to minimize suffering of the animals and to reduce the number of animals used.
Colitis was induced by intrarectal administration of 15 mg of 2,4-dinitrobenzenesulfonic acid (DNBS; Sigma-Aldrich S.r.l., Milano, Italia) in 0.25 ml of 50% ethanol via a polyethylene PE-60 catheter inserted approximately 8 cm into the anus, while the rat was under short-term anesthesia by isoflurane (2%). […]
Compound A and Compound B were dissolved in water and orally administered 30 minutes before the beginning of a test, and an acute effect was evaluated.
as §4
Visceral sensitivity was evaluated by measuring abdominal withdrawal reflex (AWR) to colorectal distension (0.5 to 3 mL).

Assay [6] relates to occludin expression in colonic mucosa. Kind of assay: Occludin expression in colonic tissue of DNBS-induced rats by western blotting. As to conditions: 10 mg/kg.
For assay [7], the system named is visceral pain (visceral hypersensitivity) in rats induced by intrarectal injection of DNBS. The assay can be described thus: Intervention test (repeated administration): AWR to colorectal distension in DNBS-treated rats. As to conditions: for effect on visceral pain compared with the treatment with dexamethasone: intervention test; for onset of visceral pain (visceral hypersensitivity): intervention test: daily from Day 3 to Day 8, evaluated Day 8, 24 hours after last treatment. On the procedure:
as §6, §1, §5
Visceral sensitivity to colorectal distension (CRD) was evaluated by measurement of abdominal withdrawal reflex (AWR) in conscious animals using semiquantitative scores (Lucarini et al., Cells. 2020; 9 (8): E1772). Briefly, the rats were anesthetized with isoflurane. A lubricated latex balloon (length: 4.5 cm) that is assembled into an embolectomy catheter by being attached to a polyethylene tube to be connected to a syringe filled with water was inserted into the rectum and the descending colon of adult rats through the anus. […]

A short description of assay [8]: Prevention test: body weight of DNBS-treated rats. As to conditions: Day 1 vs Day 6, DNBS weight loss approximately 10%, not significant. On the procedure: as §5
Visceral sensitivity was evaluated by measuring AWR to colorectal distension (0.5 to 3 mL). In the prevention test, the test medicament was administered daily to the rats immediately after the administration of DNBS, and the treatment was continued until the rats were sacrificed on the 6th day (Day 6). The evaluation was performed 6 days after the induction of colitis and 24 hours after the last treatment with Compound A (A) and Compound B (B). After the test, the animals were sacrificed, and macroscopic damage scores were assigned to their colons (FIG. 2C and FIG. 2D). In FIG. 2E and FIG. 2F, weights (g) of the animals before the DNBS injection (Day 1) and at the end of the preventive treatment with Compound A and Compound B (Day 6) are shown, respectively.

“Also recorded” adds a separate entry of the source. Where two headings read alike, the source gives them in different places.

With `O=C1CC(=O)N(c2cccc(-c3noc(=S)[nH]3)c2)c2ccc3ccccc3c2N1.[Na]` [Compound A17, 5-[3-(5-thioxo-4H-[1,2,4]oxadiazol-3-yl)phenyl]-1H-naphtho[1,2-b][1,4]diazepine-2,4(3H,5H)-dione sodium salt], the entries for the “colonic damage (macroscopic damage score)” value in assay [1] and in assay [4] were “counteracted” and “significant reduction”, respectively. Also, the “onset of visceral pain (visceral hypersensitivity)” value in assay [2] is listed as “counteracted”; in assay [7], “significantly reduces”. Also, the “weight loss caused by DNBS” value in assay [3] was “does not affect”; in assay [8], “did not affect”. Also, the visceral pain threshold result in assay [5] (acute administration, higher doses, DNBS animals) is “returned to a control value”. Further, the “AWR to colorectal distension” value in assay [5] (acute oral administration 10 to 30 mg/kg, 30 minutes before test, seven days after DNBS) was “significantly and dose-dependently decreased”. The “occludin expression in inflamed tissues compared to the DNBS-induced rats” value in assay [6] (listed as Compound A, sodium salt) is listed as “increased; also recorded: counteract”. The “effect on visceral pain compared with the treatment with dexamethasone” value in assay [7] is recorded as “more effective”.

Regarding `O=C1CC(=O)N(c2ccc(NC(=O)c3ccccc3I)cc2)c2ccc3ccccc3c2N1` [Compound B48, 5-[4-(2-iodobenzoylamino)phenyl]-1H-naphtho[1,2-b][1,4]diazepine-2,4(3H,5H)-dione], the “colonic damage (macroscopic damage score)” value in assay [1] is recorded as “counteracted”; in assay [4], “significant reduction”. The “onset of visceral pain (visceral hypersensitivity)” value in assay [2] is “counteracted”; in assay [7] it was “significantly reduces”. Further, the “weight loss caused by DNBS” value is given as “does not affect” in assay [3] and “did not affect” in assay [8]. The “AWR to colorectal distension” value in assay [5] (acute oral administration 10 and 30 mg/kg, colorectal distension 1 to 2 mL) is reported as “significantly reduced”. The “occludin expression in inflamed tissues compared to the DNBS-induced rats” value in assay [6] (listed as Compound B) was “increased; also recorded: counteract”. Also, in assay [7], the “effect on visceral pain compared with the treatment with dexamethasone” value is given as “more effective”.
